Values joined by “and” are separate entries in the source; they are usually repeats but may differ in a detail not shown here. Equal values may be shown once.
T1: human Gal-4 (Homo sapiens, UniProt P56470)
T1 construct: His6-SUMO (N, cleaved yes); made in house; host or cells: Escherichia coli BL21 (DE3)
T1 sequence (P56470 1-323): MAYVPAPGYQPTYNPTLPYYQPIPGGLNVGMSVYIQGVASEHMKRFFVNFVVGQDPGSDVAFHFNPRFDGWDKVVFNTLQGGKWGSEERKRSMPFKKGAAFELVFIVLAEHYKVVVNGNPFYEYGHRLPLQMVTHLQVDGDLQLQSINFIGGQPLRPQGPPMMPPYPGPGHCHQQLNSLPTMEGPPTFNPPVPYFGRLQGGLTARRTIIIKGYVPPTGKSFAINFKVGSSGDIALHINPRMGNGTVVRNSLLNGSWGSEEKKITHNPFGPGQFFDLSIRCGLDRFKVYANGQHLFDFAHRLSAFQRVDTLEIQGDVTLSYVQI

T2: human Gal-12 (Homo sapiens, UniProt Q96DT0)
T2 construct: To obtain full-length human Gal-12, we adapted our previously optimized procedure for murine Gal-12; made in house; host or cells: Escherichia coli Rosetta 2 (DE3)
T2 sequence (Q96DT0 1-336): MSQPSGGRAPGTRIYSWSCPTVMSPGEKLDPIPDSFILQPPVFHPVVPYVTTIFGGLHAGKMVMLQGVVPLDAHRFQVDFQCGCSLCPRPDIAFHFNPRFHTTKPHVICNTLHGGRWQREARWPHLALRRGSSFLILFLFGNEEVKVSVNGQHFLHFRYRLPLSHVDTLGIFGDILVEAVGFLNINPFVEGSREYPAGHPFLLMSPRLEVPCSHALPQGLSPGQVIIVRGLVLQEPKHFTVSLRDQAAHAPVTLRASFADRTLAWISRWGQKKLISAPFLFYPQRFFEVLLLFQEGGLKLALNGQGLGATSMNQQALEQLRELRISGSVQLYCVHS


How the values were obtained:
human Gal-1 = biological target: T3, human Gal-1 (Homo sapiens, UniProt P09382); assay: Competitive solid-phase assay (SPA), immobilized asialofetuin, Gal-1; type: binding; details: mean ± S.D., three independent experiments
T3 construct: made in house; host or cells: Escherichia coli BL21 (DE3)
T3 sequence (P09382 whole entry): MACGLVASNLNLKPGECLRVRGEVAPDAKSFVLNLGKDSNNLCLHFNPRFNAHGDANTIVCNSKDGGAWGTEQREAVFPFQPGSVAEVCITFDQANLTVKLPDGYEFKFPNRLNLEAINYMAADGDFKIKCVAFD
Procedure: (§1) The assay was adapted from Rapoport et al. (2010) ([88]). Briefly, 96-well plates (flat-bottom) were coated with 10 μg/ml asialofetuin (ASF, Sigma-Aldrich) in sodium carbonate buffer (pH 9.6) and incubated overnight at 4 °C. Then, wells were washed three times with 100 μl/well PBS-Tween 0.05% (w/v) and blocked with 100 μl/well PBS-bovine serum albumin (BSA) 2% (1 h, room temperature (RT)) in a humid chamber. Meanwhile, equal volumes of human recombinant Gal-1, -3, -4, -7, and -12 (20–40 μg/ml) in PBS-BSA 0.3% buffer were preincubated with the corresponding inhibitors in serial dilutions (2 h, 37 °C). After washing, galectins were detected using the corresponding antigalectin primary detection antibodies in PBS-BSA 0.3% w/v (1 h at RT). For Gal-1, wells were incubated with an in-house purified 100 ng/ml biotinylated rabbit anti–human Gal-1 polyclonal immunoglobulin G. For Gal-3, -4, and -7, a 1:500 dilution of the corresponding biotinylated anti-human galectin antibodies was used (BAF1154, BAF1227, and MAB13391, respectively, R&D Systems). For Gal-12, a rabbit anti-human Gal-12 polyclonal antibody (Santa Cruz Biotechnology, 1:700) was used. For Gal-1, -3, -4, and -7, plates were rinsed three times before adding 0.33 μg/ml horseradish peroxidase (HRP)-labeled streptavidin (Sigma-Aldrich) for 30 min. For Gal-12, an anti-rabbit secondary antibody conjugate coupled to HRP was incubated for 1 h at RT in PBS-BSA 0.3% w/v. After washing, 100 μl TMB solution (0.1 mg/ml tetramethylbenzidine and 0.06% H2O2 in citrate-phosphate buffer, pH 5.0) was added to plates. The reaction was stopped by adding a 2N H2SO4 solution. Absorbance was determined at 450 nm in a Multiskan MS microplate reader (Thermo Fisher Scientific).

human Gal-3 = biological target: T4, human Gal-3 (Homo sapiens, UniProt P17931); assay: Competitive solid-phase assay (SPA), immobilized asialofetuin, Gal-3; type: binding; details: mean ± S.D., three independent experiments
T4 construct: made in house; host or cells: Escherichia coli BL21 (DE3)
T4 sequence (P17931 whole entry): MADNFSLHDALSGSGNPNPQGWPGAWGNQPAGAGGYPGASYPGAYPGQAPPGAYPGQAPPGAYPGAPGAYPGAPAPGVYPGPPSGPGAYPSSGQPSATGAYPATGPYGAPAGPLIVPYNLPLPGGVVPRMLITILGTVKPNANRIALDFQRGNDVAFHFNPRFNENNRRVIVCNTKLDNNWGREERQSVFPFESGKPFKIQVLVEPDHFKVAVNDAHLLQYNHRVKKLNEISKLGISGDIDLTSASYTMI
Procedure: as §1

human Gal-4 [1] = biological target: T1, human Gal-4; assay: Competitive solid-phase assay (SPA), immobilized asialofetuin, Gal-4; type: binding; details: mean ± S.D., three independent experiments
Procedure: as §1

human Gal-7 = biological target: T5, human Gal-7 (Homo sapiens, UniProt P47929); assay: Competitive solid-phase assay (SPA), immobilized asialofetuin, Gal-7; type: binding; details: competitive SPA, immobilized asialofetuin; mean ± S.D., three independent experiments
T5 construct: made in house; host or cells: Escherichia coli BL21 (DE3)
T5 sequence (P47929 whole entry): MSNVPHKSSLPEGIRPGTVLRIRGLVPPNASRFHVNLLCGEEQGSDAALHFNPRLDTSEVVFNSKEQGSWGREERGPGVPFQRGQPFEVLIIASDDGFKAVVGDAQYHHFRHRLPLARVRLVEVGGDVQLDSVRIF
Procedure: as §1

human Gal-12 = biological target: T2, human Gal-12; assay: Competitive solid-phase assay (SPA), immobilized asialofetuin, Gal-12; type: binding; details: mean ± S.D., three independent experiments
Procedure: as §1

Gal-1 = biological target: Gal-1; set-up: method as in PMID 15476813; details: at 298 K; read-out: dissociation constant reported for Gal-1/LacNAc interactions; cited from earlier work
human Gal-4 [2] = biological target: T1, human Gal-4; assay: Isothermal titration calorimetry (ITC), Gal-4; type: binding; details: Gal-4, PBS, 298 K
Procedure: All ITC experiments were performed by using a NanoITC (TA Instruments) under previously optimized conditions ([89]). A typical titration involved 20 injections at 300 s intervals of 2.5 μl aliquots of a 2.5 to 10 mM ligand solution into the sample cell (volume 200 μl) containing the different galectins (30–100 μM). The solutions were prepared by dissolving the glycan ligands in degassed PBS buffer at 298 K. The titration cell was continuously stirred at 300 rev/min. The heats of dilution of the ligands in the buffer were subtracted from the titration data. […] Fitting was performed using the Nano Analyze software (TA Instruments; https://www.tainstruments.com/itcrun-dscrun-nanoanalyze-software/) to determine association constants (Ka) and the enthalpy change (ΔH). No reliable fit of the thermodynamic parameters could be obtained for binding affinities above 80 μM.

human Gal-4 [3] = biological target: T1, human Gal-4; assay: Inhibition of Gal-4-driven IL-6 secretion by activated PBMCs (IL-6 ELISA); type: cell-based; details: Gal-4 50 or 100 μg/ml; BGA6 0.5, 1, 2.5 and 5 mM; 72 h; anti-CD3/CD28 activated PBMCs
Procedure: (§2) PBMCs were isolated from anonymous healthy volunteer buffy coats (Fundación Hemocentro Blood Bank, Buenos Aires, Argentina), using Ficoll-Hypaque density gradient (Lymphoprep). The samples were then centrifuged at 1500 rpm for 25 min, and the interface corresponding to mononuclear cells was carefully removed and diluted with PBS supplemented with 2% fetal bovine serum. To reduce platelet contamination, three washing steps with PBS 2% fetal bovine serum were performed, and freshly isolated PBMCs were subsequently resuspended in complete RPMI medium. To obtain a bead to T-cell ratio of 1:1, approximately 16 × 10^4 PBMCs were activated with 2 μl of Dynabeads Human T-Activator CD3/CD28 (Gibco). After 24 h stimulation at 37 °C and 5% CO2, cells were incubated with human recombinant Gal-4 (25, 50, or 100 μg/ml) in the absence or presence of BGA6 (0.5, 1, 2.5, and 5 mM) for an additional time period of 72 h.
(§3) Human IL-6 was determined in supernatants from activated PBMCs exposed or not to Gal-4 in the absence or presence of BGA6 using specific ELISA kits (BD Biosciences), according to the manufacturer's instructions. Briefly, 96-well plates (Costar) were coated with capture antibody during 18 h at 4 °C. […] Reaction was stopped with 2N H2SO4, and the absorbance was measured at 450 nm using a plate spectrophotometer (Multiskan).

human PBMCs = assay: IL-6 secretion by anti-CD3/CD28-activated PBMCs cultured with Gal-4 (IL-6 ELISA); type: cell-based; details: Gal-4 25, 50 or 100 μg/ml, 72 h
Procedure: as §2, §3

Molecule	IC50 (human Gal-1)	IC50 (human Gal-3) [mM]	IC50 (human Gal-4 [1]) [mM]	IC50 (human Gal-7)	IC50 (human Gal-12) [mM]	Kd (Gal-1) [mM]	-TΔS (human Gal-4 [2]) [kcal/mol]	ΔH (human Gal-4 [2]) [kcal/mol]	Kd (human Gal-4 [2]; n fixed to 1.00) [mM]	Gal-4-driven IL-6 secretion by human activated PBMCs in presence of BGA6 (human Gal-4 [3])	secretion of IL-6 by human-activated T lymphocytes in PBMCs (human PBMCs)
CC(=O)NC1C(O)OC(CO)C(OC2OC(CO)C(O)C(O)C2O)C1O (stereo not shown) [LacNAc, N-acetyllactosamine]	1.3 ± 0.1 mM	2 ± 0.2	25.8	2.5 mM and 2.49 mM	36 ± 0.9	0.076					
CC(=O)NC1C(OC2C(O)C(CO)OC(OC3C(CO)OC(O)C(O)C3O)C2OC2OC(C)C(O)C(O)C2O)OC(CO)C(O)C1O (stereo not shown) [BGA6, blood group A antigen tetraose 6]	5 mM and 5.02 mM	1.5 ± 0.3	0.2 ± 0.1	5.4 ± 0.7 mM	27.1 ± 1		1.77 ± 0.14	-7.65 ± 0.72	0.051 ± 0.003	effectively suppressed	
Gal-4: recombinant full-length human galectin-4, tandem-repeat type lectin expressed in E. coli (protein, left off: His6, N-terminal, cleaved | SUMO, N-terminal, cleaved, recombinant full-length human galectin-4, tandem-repeat type lectin expressed in E. coli) MAYVPAPGYQPTYNPTLPYYQPIPGGLNVGMSVYIQGVASEHMKRFFVNFVVGQDPGSDVAFHFNPRFDGWDKVVFNTLQGGKWGSEERKRSMPFKKGAAFELVFIVLAEHYKVVVNGNPFYEYGHRLPLQMVTHLQVDGDLQLQSINFIGGQPLRPQGPPMMPPYPGPGHCHQQLNSLPTMEGPPTFNPPVPYFGRLQGGLTARRTIIIKGYVPPTGKSFAINFKVGSSGDIALHINPRMGNGTVVRNSLLNGSWGSEEKKITHNPFGPGQFFDLSIRCGLDRFKVYANGQHLFDFAHRLSAFQRVDTLEIQGDVTLSYVQI											significant and dose-dependent increase

From article PMC11367503, “Exploring galectin interactions with human milk oligosaccharides and blood group antigens identifies BGA6 as a functional galectin-4 ligand” (The Journal of Biological Chemistry, 2024)
